Reference: patent USRE47493E1, “Substituted bicyclic dihydropyrimidinones and their use as inhibitors of neutrophil elastase activity” (Boehringer Ingelheim International GmbH, priority 2014, dated 2019)
Converted amounts (≈) assume the structure as drawn.

What was measured:
[1] = Assay for the Determination of Metabolic Stability with Human Liver Microsomes; format: in vitro ADME; details: pooled human liver microsomes, 37° C., NADPH; for half-life at 1 nM: pH 7.6, read-out: t1/2 INVITRO
Description: Assay for the Determination of Metabolic Stability with Human Liver Microsomes
The metabolic degradation of the test compound is assayed at 37° C. with pooled human liver microsomes. The final incubation volume of […] per time point contains TRIS buffer pH 7.6 (0.1 M), magnesium chloride (5 mM), microsomal protein (1 mg/ml) and the test compound at a final concentration of […]. Following a short preincubation period at 37° C., the reactions are initiated by addition of beta-nicotinamide adenine dinucleotide phosphate, reduced form (NADPH, 1 mM) and terminated by transfering an aliquot into acetonitrile after different time points. Additionally, the NADPH-independent degradation is monitored in incubations without NADPH, terminated at the last time point. The rol remaining test compound after NADPH independent incubation is reflected by the parameter c(control) (metabolic stability). The quenched incubations are pelleted by centrifugation (10′000 g, 5 min) An aliquot of the supernatant is assayed by LC-MS/MS for the amount of parent compound.
The half-life (t1/2 INVITRO) is determined by the slope of the semilogarithmic plot of the concentration-time profile. The intrinsic clearance (CL_[…]) is calculated by considering the amount of protein in the incubation: CL_[…][μl/min/mg protein]=(ln 2/(half-life [min]*protein content [mg/ml]))*1′000.
The half-life (t1/2 INVITRO) values of selected compounds in the metabolic stability assay described above are listed in Table 15.

[2] = Assay for Determination of Aqueous Solubility; format: physicochemical; details: McIlvaine buffer pH 6.8, 2.5% DMSO; for Aqueous solubility: 24 h; for solubility at 24 h: McIlvaine buffer pH 6.8 with 2.5% DMSO, aqueous buffer, kinetic from dmso stock
Description: Assay for Determination of Aqueous Solubility
The aqueous solubility of a compound is determined by comparing the amount dissolved in aqueous buffer (containing 2.5% DMSO) to the amount dissolved in an acetonitrile/water (1/1) solution. Starting from a 10 mM DMSO stock solution, aliquots are diluted with acetonitrile/water (1/1) and Mcllvaine buffer pH 6.8, respectively. After 24 h of shaking, the solutions or suspensions are filtered and analyzed by LC-UV. The amount dissolved in buffer is compared to the amount dissolved in the acetonitrile/water (1/1) solution. Solubility is measured from 0.001 to 0.125 mg/ml at a DMSO concentration of 2.5%. If more than 90% of the compound is dissolved in buffer, the value is marked with “>”.

[3] = Assay for the Determination of Metabolic Stability with Human Hepatocytes; format: in vitro ADME; details: scaled with well stirred model
Description: Assay for the Determination of Metabolic Stability with Human Hepatocytes
The metabolic degradation of the test compound is assayed in a human hepatocyte suspension. Human hepatocytes (typically cryopreserved) are incubated in an appropriate buffer system (e.g. Dulbecco's modified eagle medium plus 3.5 μg glucagon/500 mL, 2.5 mg insulin/500 mL and 3.75 mg/500 mL hydrocortison) containing 5% species serum. Following a (typically) […] preincubation in an incubator (37° C., 10% CO2), 5 μl of test compound solution (80 μM; from 2 mM stock solution in DMSO diluted 1:25 with medium) are added into 395 μl hepatocyte suspension (cell density in the range 0.25-5*10^6 cells/mL, typically 1*10^6 cells/mL; final concentration of test compound 1 μM, final DMSO concentration […]). The cells are incubated for six hours (incubator, orbital shaker) and samples (25 μl) are taken at 0, 0.5, 1, 2, 4 and 6 hours. Samples are transferred into acetonitrile and pelleted by centrifugation (5 min). The supernatant is transferred to a new 96-deepwell plate, evaporated under nitrogen and resuspended. The decline of parent compound is analyzed by LC-MS/MS.
The intrinsic clearance CL_[…] is calculated as follows: CL_[…]=Dose/AUC=(C0/CD)/(AUD+clast/k)*1′000/60 (C0: initial concentration in the incubation [μM], CD: cell density of vital cells [10^6 cells/mL], AUD: area under the data [μM*h], clast: concentration of last data point [μM], k: slope of the regression line for parent decline [h^−1])
The calculated in vitro hepatic intrinsic clearance can be scaled up to the intrinsic in vivo hepatic clearance and used to predict hepatic in vivo blood clearance (CL) by the use of a is liver model (well stirred model): CL_[…]_INVIVO [ml/min/kg]=(CL_[…] [μL/min/10^6 cells]* hepatocellularity[10^6 cells/g liver]*liver factor[g/kg bodyweight])/1′000 CL[ml/min/kg]=CL_[…]_INVIVO [ml/min/kg]*hepatic blood flow [ml/min/kg]/(CL_[…]_INVIVO [ml/min/kg]+hepatic blood flow [ml/min/kg]) Qh[%]=CL[ml/min/kg]/hepatic blood flow[ml/min/kg]) (Hepatocellularity, human: 120*10^6 cells/g liver; lver factor, human: 25.7 g/kg bodyweight; blood flow, human: 21 ml/(min*kg))
The predicted human hepatic in vivo blood clearance (CL) of selected compounds in the metabolic stability assay described above are listed in Table 16.

[4] = Assay for Determination of Drug Transport Across Human CACO-2 Cells; format: in vitro ADME; details: human; for efflux ratio at 2 h, 10 nM: pH 7.2, Caco-2, PEBA/PEAB; for Papp A→B at 10 nM: Caco-2, apical-to-basal, read-out: PEAB; for Papp A→B at 10 nM / Papp B→A at 10 nM: pH 7.2, 37° C.; for Papp B→A at 10 nM: Caco-2, basal-to-apical, read-out: PEBA
Source text: (§1) Assay for Determination of Drug Transport Across Human CACO-2 Cells
(§2) The assay provides information on the potential of a compound to pass the cell membrane, on the extent of oral absorption as well as on whether the compound is actively transported by uptake and/or efflux transporters. For the measurement of permeability across polarized, confluent human cancer colon carcinoma cells 2 (Caco-2) cell monolayers grown on permeable filter supports are used as the in vitro absorption model. Apparent permeability coefficients (PE) of the compounds across the Caco-2 monolayers are measured (pH 7.2, 37° C.) in apical-to-basal (AB) (absorptive) and basal-to-apical (BA) (secretory) transport direction. AB permeability (PEAB) represents drug absorption from the intestine into the blood and BA permeability (PEBA) drug secretion from the blood back into the intestine via both passive permeability as well as active transport mechanisms mediated by efflux and uptake transporters that are expressed on the Caco-2 cells. The compounds are assigned to permeability/absorption classes by comparison of the AB permeabilities with the AB permeabilities of reference compounds with known in vitro permeability and oral absorption in the human. Identical or similar permeabilities in both transport directions indicate passive permeation, vectorial permeability points to additional active transport mechanisms. […] Active transport is concentration-dependently saturable.
(§3) Caco-2 cells (1−2*10^5 cells/cm^2 area) are seeded on filter inserts (Costar transwell polycarbonate or PET filters, […] pore size) and cultured (DMEM) for 10 to 25 days. Compounds are dissolved in appropriate solvent (like DMSO, 1-20 mM stock solutions). Stock solutions are diluted with HTP-4 buffer (128.13 mM NaCl, 5.36 mM KCl, 1 mM MgSO4, 1.8 mM CaCl2, 4.17 mM NaHCO3, 1.19 mM Na2HPO4×7H2O, 0.41 mM NaH2PO4×H2O, 15 mM HEPES, 20 mM glucose, pH 7.2) to prepare the transport solutions (typically […] compound, final DMSO <=0.5%). The transport solution (TL) is applied to the apical or basolateral donor side for measuring A-B or B-A permeability (3 filter replicates), respectively. The receiver side contains HTP-4 buffer supplemented with 2% BSA. Samples are collected at the start and end of experiment from the donor and at various time intervals for up to 2 hours also from the receiver side for concentration measurement by LC-MS/MS or scintillation counting. Sampled receiver volumes are is replaced with fresh receiver solution.
(§4) The apparent permeability coefficients (PEAB and PEBA) and efflux ratios (PEBA/PEAB) of selected compounds in the Caco-2 drug transport assay described above are listed in Table 17.

[5] = test system: Caco-2 cell monolayers; experiment: as above; format: in vitro ADME; details: for Efflux ratio: Caco-2, PEBA/PEAB; for PEAB: Caco-2, apical-to-basal; for PEAB / PEBA: pH 7.2, 37° C.; for PEBA: Caco-2, basal-to-apical
Source text: as §1, §2, §3, §4

| t1/2 INVITRO [1] | Aqueous solubility [2] | CL (predicted human hepatic in vivo blood clearance) [3] | half-life at 1 nM [1] | efflux ratio at 2 h, 10 nM [4] | Papp A→B at 10 nM [4] | Papp B→A at 10 nM [4] | solubility at 24 h [2] | Efflux ratio [5] | PEAB [5] | PEBA [5] | SMILES |
| --- | --- | --- | --- | --- | --- | --- | --- | --- | --- | --- | --- |
| >130 min | 6 µg/mL | – | – | – | – | – | – | – | – | – | N#Cc1ccc(C2C3=C(CCCC3=O)N(c3cccc(C(F)(F)F)c3)C(=O)N2C(=O)NCCO)cc1 (stereo not drawn) [Example 39.3] |
| – | – | 0 mL/min/kg | > 130 min | – | – | – | 57 µg/mL (≈ 100 µM) | – | – | – | CS(=O)(=O)c1cc(C#N)ccc1[C@@H]1C2=C(CCCC2=O)N(c2cccc(C(F)(F)F)c2)C(=O)N1S(C)(=O)=O [Example 68, (S)-3-(Methylsulfonyl)-4-(3-(methylsulfonyl)-2,5-dioxo-1-(3-(trifluoromethyl)phenyl)-1,2,3,4,5,6,7,8-octahydroquinazolin-4-yl)benzonitrile] |
| >130 min | 905 µg/mL | 0 mL/min/kg | – | – | – | – | – | 10.8 | 0.0000084 cm/s | 0.0000906 cm/s | CS(=O)(=O)c1cc(C#N)ccc1[C@@H]1C2=C(CCCC2=O)N(c2cccc(C(F)(F)F)c2)C(=O)N1C(=O)NCC(F)F [Example 75.7] |

Second part, the compound before the results:

| SMILES | t1/2 INVITRO [1] | Aqueous solubility [2] | CL (predicted human hepatic in vivo blood clearance) [3] | half-life at 1 nM [1] | efflux ratio at 2 h, 10 nM [4] | Papp A→B at 10 nM [4] | Papp B→A at 10 nM [4] | solubility at 24 h [2] | Efflux ratio [5] | PEAB [5] | PEBA [5] |
| --- | --- | --- | --- | --- | --- | --- | --- | --- | --- | --- | --- |
| CS(=O)(=O)CCNC(=O)N1C(=O)N(c2cccc(C(F)(F)F)c2)C2=C(C(=O)CCC2)C1c1ccc(C#N)cc1 (stereo not drawn) [Example 39.19] | >130 min | 9 µg/mL | 0 mL/min/kg | – | – | – | – | – | – | – | – |
| CN1C(=O)N(c2cccc(C(F)(F)F)c2)C2=C(C(=O)CCC2)[C@H]1c1ccc(C#N)cc1S(C)(=O)=O [Example 48, (S)-4-(3-Methyl-2,5-dioxo-1-(3-(trifluoromethyl)phenyl)-1,2,3,4,5,6,7,8-octahydroquinazolin-4-yl)-3-(methylsulfonyl)benzonitrile] | – | – | 3 mL/min/kg | > 130 min | 1.6 | 60 ×10⁻⁶ cm/s | 98 ×10⁻⁶ cm/s | – | – | – | – |
| CN1C(=O)N(c2ccnc(C(F)(F)F)c2)C2=C(C(=O)CCC2)C1c1ccc(C#N)cc1S(C)(=O)=O (stereo not drawn) [Example 64, 4-(3-Methyl-2,5-dioxo-1-(2-(trifluoromethyl)pyridin-4-yl)-1,2,3,4,5,6,7,8-octahydroquinazolin-4-yl)-3-(methylsulfonyl)benzonitrile] | – | – | 0 mL/min/kg | > 130 min | 4.4 | 17.1 ×10⁻⁶ cm/s | 75.7 ×10⁻⁶ cm/s | 8 µg/mL (≈ 15.9 µM) | – | – | – |
| CS(=O)(=O)c1cc(C#N)ccc1[C@@H]1C2=C(CCCC2=O)N(c2cccc(C(F)(F)F)c2)C(=O)N1C(N)=O [Example 75, (S)-4-(4-Cyano-2-(methylsulfonyl)phenyl)-2,5-dioxo-1-(3-(trifluoromethyl)phenyl)-1,2,5,6,7,8-hexahydroquinazoline-3(4H)-carboxamide] | – | – | – | > 130 min | – | – | – | 79 µg/mL (≈ 148 µM) | – | – | – |
| CC(C)NC(=O)N1C(=O)N(c2cccc(C(F)(F)F)c2)C2=C(C(=O)CCC2)[C@H]1c1ccc(C#N)cc1S(C)(=O)=O [Example 75.3] | >130 min | 9 µg/mL | 0 mL/min/kg | – | – | – | – | – | 3.7 | 0.0000228 cm/s | 0.0000853 cm/s |
